In a melting point compilation (Tetko et al.; mined from patent text by program, amines drawn as free bases though some values may be those of a salt):

| Structure (SMILES) | melting point |
| --- | --- |
| CC(C)(C)OC(=O)C1CCNC1=S (configuration not stated) | 110 to 111 °C |
| CCCCCCCCCCCCS(=O)(=O)Nc1cc(C(=O)Nc2ccccc2)ccc1OC | 156 to 157 °C |
| N=C(N)c1ccc(-c2ccc(N3CCCN(CC(=O)O)C3=O)cc2)cc1 | > 200 °C |
| O=[N+]([O-])c1ccc(NCc2ccccc2)c([N+](=O)[O-])c1 | 106 °C |
| O=c1oc2cc(Cl)cnc2n1CCl | 105 to 107 °C |
| C[C@@](O)(C(=O)Nc1ccc(S(=O)(=O)c2ccccc2)cc1F)C(F)(F)F | 121 to 122 °C |
| Cc1cc(N2CCN(c3ccccc3)CC2)c(C#N)c(=O)[nH]1 | > 270 °C |
| CC(Oc1ccc([N+](=O)[O-])cc1F)c1c(Cl)ccc(F)c1Cl (configuration not stated) | 110 °C |
| CC(c1ccccc1)C(C(=O)c1ccc(Cl)cc1)n1cncn1 (configuration not stated) | 163 to 165 °C |
| Cc1ccc(C)n1Nc1ccc(N2CC(C)OC(C)C2)nn1 (configuration not stated) | 147 to 148 °C |
| N#CC1=C(C#N)SC(c2ccccc2)CS1 (configuration not stated) | 122 to 124 °C |
| COc1cccc2c(O)cnnc12 | 160 to 163 °C |
| CCC(=O)Nc1ccc2c(c1)C(=O)c1cc(NC(=O)CC)ccc1C2=O | 291 °C |
| Nc1ccc(C#CC2CC2)c(F)c1 | 82 to 86 °C |
| Cc1cccc(Oc2cccc(NC(=O)c3ccn4c3CSC4c3cccnc3)c2)c1 (configuration not stated) | 149 °C |
| Nc1cccc(-c2ccc(CCNCc3ccc(Cl)c(Cl)c3)c3ccccc23)n1 | 145 to 170 °C |
| CC(=O)NC[C@H]1CN(c2ccc(C3CCN(C(=O)O)CC3)c(F)c2)C(=O)O1 | 144 to 146 °C |
| O=c1[nH][nH]c(=O)c2c(O)c3c(Br)cccc3nc12 | 280 to 281 °C |
| CSc1cc2cnc(-c3ccccc3)n2c(SC)n1 | 117 to 118 °C |
| O=C(O)C1CCCc2c(-c3ccc(Cl)cc3)noc2C1 (configuration not stated) | 215 to 217 °C |
| C=CCN1CCN(c2ncc3c(=O)c(C(=O)OCC)cn(CC)c3n2)CC1 | 131 °C |
| CN(C)CCN1C(=O)C(C)(C)SC1c1cccnc1 (configuration not stated) | 67 to 70 °C |
| CCCN(CCC)C1CCc2ccc(NC(=O)C=NO)cc2C1 (configuration not stated) | 82 to 85 °C |
| CCCCC(=O)c1c(-c2ccc3c(Br)c(OCC#N)ccc3c2)oc2ccccc12 | 98 to 100 °C |
| CCC1=C(O)C(=O)CC1 | 39 to 41 °C |
| COC(=O)C1=CCC2=Nc3ccccc3C2=C1C(=O)OC | 219 °C |

| Structure (SMILES) | melting point |
| --- | --- |
| CCN(CC)c1ccc(C=CC2=NC(C#N)=C(C#N)N=CC2)cc1 | > 300 °C |
| O=C(O)C(CC1CCCCC1)c1ccc(OCc2ccccn2)cc1 (configuration not stated) | 100 to 103 °C |
| O=c1cc(-c2ccc(O)cc2)oc2ccccc12 | 177 to 180 °C |
| CCOC(=O)c1cc(C)n(-c2cccc(I)c2)c1-c1ccccc1 | 143 to 144 °C |
| NS(=O)(=O)c1cc2c(=O)[nH]ccc2s1 | 300 to 301 °C |
| CC(C)Cn1c(=O)n(C)c(=O)c2c(-c3cccc(-c4nnn[nH]4)c3)n(Cc3cccc4ccccc34)nc21 | 251 to 254 °C |
| CCc1cc(C)c2c(-c3cccc(Br)c3)cc(=O)n(CC)c2n1 | 107 to 108 °C |
| O=C(CCN1CCN(c2cccc(C(F)(F)F)c2)CC1)Nc1ccccc1[N+](=O)[O-] | 185 to 188 °C |
| CCOC(=O)c1ccc(NCCOc2cccc3ccccc23)cc1 | 124 to 127 °C |
| Cc1ccccc1-c1cc(F)c2c(c1)CC(CN)O2 (configuration not stated) | > 250 °C |
| CN(C)CCNc1nc(C2C(=O)Nc3ccc(Br)cc32)c2cn(C)nc2n1 (configuration not stated) | 279 to 289 °C |
| CS(=O)(=O)Nc1ccc(N)cn1 | 199 to 202 °C |
| CCCCN(C)c1nsc(NC(=O)NC)c1C#N | 109 to 110 °C |
| COC(=O)c1cc(-c2ccc(OC)c(Cl)c2)nn(CC(C)C)c1=O | 108 to 109 °C |
| CC1COCc2nc3c(N)nc4ccc(OC(=O)N5CCCC5)cc4c3n21 (configuration not stated) | 218 to 219 °C |
| COc1cc2c(Nc3ccc(Sc4nccn4C)c(Cl)c3)c(C#N)cnc2cc1N1CCC(N2CCCCC2)CC1 | 221 to 223 °C |
| CCOc1cc(Nc2cccc3c2C(=O)N(C2CCC(=O)NC2=O)C3=O)ccc1OC (configuration not stated) | 162 to 164 °C |
| CCCOc1ccc(F)c2c(=O)c(-c3ccc(OC)cc3)c(CN3CCN(c4ccccn4)CC3)[nH]c12 | 211 to 212 °C |
| NC(=Nc1ccc2[nH]c3ccccc3c2c1)c1cccs1 | 243 to 244 °C |
| CCOC(=O)C1=C(C(F)(F)F)Nc2n[nH]cc2C1c1ccsc1 (configuration not stated) | 140 to 145 °C |
| Cc1cn2nc(Cl)cc(C)c2n1 | 109 to 110 °C |
| CCCCc1nc(C(C)(C)O)c(C(=O)OCc2oc(=O)oc2C)n1Cc1ccc(-c2ccccc2C(=O)O)cc1 | > 70 °C |
| Cc1noc(NS(=O)(=O)c2ccccc2C#N)c1Br | 152 to 155 °C |
| CCCCc1nn(-c2cc(NC(=O)CC)ccc2Cl)c(=O)n1Cc1ccc(-c2ccccc2S(=O)(=O)NC(=O)OC(C)(C)C)cc1 | 133 to 135 °C |
| O=C(O)c1ccc(-c2cc(-c3ccc(Cl)cc3)no2)cc1 | > 300 °C |
| O=C(NC1CCN(CCCCl)CC1)c1ccccc1 | 145 to 147 °C |

| Structure (SMILES) | melting point |
| --- | --- |
| CN1C(=O)c2cscc2Nc2cc(Cl)c(Cl)cc21 | 265 to 267 °C |
| Cc1nn(-c2ccc(F)cc2)cc1C(=O)Nc1ccc(N2CCC(O)CC2)c(C#N)c1 | 224 to 225 °C |
| COc1cc(-c2ncnc(C(F)(F)F)c2C)c(F)cc1Cl | 144 to 146 °C |
| CC1(C)C(=O)N(c2ccc([N+](=O)[O-])c(C(F)(F)F)c2)C(=O)N1CC=CCN1C(=O)N(c2ccc([N+](=O)[O-])c(C(F)(F)F)c2)C(=O)C1(C)C | 191 to 193 °C |
| COc1ccc2ncc([N+](=O)[O-])c(Nc3ccccc3Cl)c2c1 | 163 to 165 °C |
| COc1ccc2c(c1)N(C(C)=O)c1cccc(SC)c1S2 | 106 to 108 °C |
| CC(NC(=O)C1=C(C(=O)Nc2cc(OC3CCCC3)c(Cl)cc2F)CCCC1)c1cccc2ccccc12 (configuration not stated) | 198 to 201 °C |
| CCOC(=O)c1ccc(N(CCOc2ccc(C(C)=O)c3ccccc23)C(=O)C(F)(F)F)cc1 | 160 to 161 °C |
| CC(=O)c1ccc(Cl)c(S(=O)(=O)N(C)C)c1 | 108 °C |
| COCOc1ccc(Nc2ncccc2NS(=O)(=O)c2ccc(OC)cc2)cc1 | 118 to 119 °C |
| O=C(Nc1ccc(N2C[C@H]3CN(C(=O)OCc4ccccc4)C[C@H]3C2)cc1)OCc1ccccc1 | 145 to 146 °C |
| N#Cc1ccc(N2CCC(=O)C2)c2ccccc12 | 153 to 154 °C |
| Cc1ccc(CNC(=O)c2ccc3n2Cc2ccccc2N(C(=O)COc2ccc(Cl)cc2)C3)cc1 | 174 to 176 °C |
| CCCCCC(O)(c1cncnc1)C(C)(C)C (configuration not stated) | 66 to 67 °C |
| O=C(O)c1cn2c3c(ccc([N+](=O)[O-])c3c1=O)C1CCCCC12 (configuration not stated) | 251 to 253 °C |
| O=C(OC1CCCCCCC1=O)c1ccccc1 (configuration not stated) | 92 to 93 °C |
| Cc1cccc(C)c1CNc1cc(C(=O)N(C)C)cc2c1nc(CO)n2C | 171 to 172 °C |
| S=C(NCc1cccc(Cl)c1)N1CCc2c([nH]c3ccccc23)C1c1ccc2c(c1)OCO2 (configuration not stated) | 189 to 191 °C |
| CC(C)n1c(=O)nc(-c2ccc3c(c2)OCO3)c2cc3c(cc21)OCCO3 | 229 to 231 °C |
| CC1(C)CC(=C(c2ccc(O)cc2)c2ccc(-c3ccoc3)cc2)CC(C)(C)C1 | 128 to 129 °C |
| COc1ccc2c(c1)c(=O)oc(=O)n2-c1ccc(OCc2ccccc2)cc1 | 155 °C |
| O=C(O)CCc1nc(C(=O)O)ccc1O | 210 to 212 °C |
| CC(=O)c1cc2c(s1)C(NC(=O)c1ccc([N+](=O)[O-])cc1)C(O)C(C)(C)O2 (configuration not stated) | 223 to 225 °C |
| CCOC(=O)COc1cc(O)c2c(c1Cl)OC1(CCCCC1)CC2=O | 110 to 111 °C |
| C=C1CSC2C(NC(=O)COc3ccccc3)C(=O)N2C1C(=O)O (configuration not stated) | 185 to 188 °C |
| CC#Cc1c(-c2ccc(S(C)(=O)=O)cc2)cnn(-c2ccc(F)c(F)c2)c1=O | 149 to 150 °C |

| Structure (SMILES) | melting point |
| --- | --- |
| CCCCCCC(C)(C)c1ccc(C2=CC(=O)CCC2)c(O)c1 | 122 to 123 °C |
| N#Cc1ccc2cc(CCCCCc3cc4ccc(C#N)cc4o3)oc2c1 | 106 to 107 °C |
| Fc1ccc2cc(C3CCNCC3)sc2c1 | 115 to 120 °C |
| COc1nc(O)c(C(=O)O)nc1Cl | 170 to 173 °C |
| CCOC(=O)c1cc(NC(C)=O)ccc1OC(C)=O | 91.5 to 92.5 °C |
| CC(=O)Nc1cc(Cl)c(O)c(Cl)c1 | 151 to 152 °C |
| CNc1cc(Oc2ccc(NC(=O)Nc3ccc(Br)c(C(F)(F)F)c3)cc2)ncn1 | 161 to 164 °C |
| NC1=NN(c2ccc(C(=O)C(F)(F)F)cc2)C(c2ccccc2)C1 (configuration not stated) | 214 to 216 °C |
| CN(CCc1ccccc1)C(=O)C(C)(Cc1c[nH]c2ccccc12)NC(=O)OC1C2CC3CC(C2)CC1C3 (configuration not stated) | 90 to 95 °C |
| CCCCN(NC(=O)c1ccccc1)C(=O)c1ccc(Cl)c(Cl)c1 | 234 to 236 °C |
| O=P(O)(O)C(F)(F)c1ccc(CN(Cc2ccc(C(F)(F)P(=O)(O)O)cc2)S(=O)(=O)CCc2ccccc2)cc1 | 181 to 183 °C |
| COc1ccccc1-c1cc2[nH]c3ccc(O)cc3c2c2c1C(=O)NC2=O | 216 °C |
| CCCNCc1cnc(-c2ncn3c2CN(C)C(=O)c2cc(F)ccc2-3)o1 | 134 to 136 °C |
| CCCCNC(=O)N(c1ccccc1)c1ccccc1 | 92 °C |
| NC(=O)c1nccc(Cl)c1Cl | 174 to 175 °C |
| CC=C(Oc1nc(OC)cc(OC)n1)C(=O)OC | 71 °C |
| C#CCOc1ccc(-c2nc3cnncc3[nH]2)c(OC)c1 | 224 °C |
| O=[N+]([O-])c1ccc(OCC(O)CCCl)cc1 (configuration not stated) | 60 to 63 °C |
| CCc1nn2c(N3CCN(C)CC3)ccnc2c1S(=O)(=O)c1ccccc1 | 206 to 207 °C |
| COc1cc(O)cc2oc(=O)cc(C)c12 | 261 to 263 °C |
| O=C(NCc1cccc(Br)c1)c1ccc2cnccc2n1 | 112 to 113 °C |
| CCOC(=O)[C@@H](Cc1ccccc1)C[C@H](Cc1ccccc1)C(=O)NCCC(=O)O (relative stereo) | 84 to 86 °C |
| CCN1CCCC1CNC(=O)c1cc([N+](=O)[O-])c(Cl)cc1OC (configuration not stated) | 107 to 108 °C |
| O=[N+]([O-])c1cc(-c2ccc(Cl)cc2)[nH]c1SC(F)(F)F | 185 to 193 °C |
